Assay results reported in PMC6983068, “Identifying Ortholog Selective Fragment Molecules for Bacterial Glutaredoxins by NMR and Affinity Enhancement by Modification with an Acrylamide Warhead” (Molecules, 2019).

Assays:
PaGRX = biological target: T1, PaGRX (Pseudomonas aeruginosa, UniProt Q9HU55); assay: biochemical
T1 construct: gene grx

hGRX1 = biological target: T2, hGRX1 (Homo sapiens, UniProt P35754); format: binding; conditions: read-out: hGRX1 Kd ± S.D.
T2 sequence (P35754 2-106): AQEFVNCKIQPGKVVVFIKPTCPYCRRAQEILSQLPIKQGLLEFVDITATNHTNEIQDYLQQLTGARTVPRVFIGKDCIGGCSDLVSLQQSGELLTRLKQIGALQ

BrmGRX = biological target: T3, BrmGRX (Brucella melitensis, UniProt Q8YJA2); assay: biochemical; format: binding
T3 construct: gene BMEI0184
T3 sequence (Q8YJA2 1-92): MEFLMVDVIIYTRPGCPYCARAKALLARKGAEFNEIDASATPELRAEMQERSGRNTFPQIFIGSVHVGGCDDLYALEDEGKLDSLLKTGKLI

T1 sequence (Q9HU55 whole entry): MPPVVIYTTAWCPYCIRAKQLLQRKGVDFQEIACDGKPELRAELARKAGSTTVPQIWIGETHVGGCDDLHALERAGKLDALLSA

| SMILES | Kd (PaGRX) [mM] | Kd (hGRX1) [mM] | Kd (BrmGRX) [mM] |
| --- | --- | --- | --- |
| O=C(O)c1cc(-c2ccco2)[nH]n1 [RK104] | 0.72 ± 0.16 | 2.89 ± 0.47 | 0.9 ± 0.15 |
| Cn1nc(-c2ccco2)cc1C(=O)O [RK144] | 1.92 ± 0.42 | 5.42 ± 0.9 | 5.24 ± 0.92 |
| O=C(O)c1ccc(-n2cccn2)cc1 [RK192] | 5.26 ± 1.12 | 5.05 ± 1.27 | 5.56 ± 0.51 |
| O=C(O)c1ccc(-n2cccc2)cc1 [RK207] | 1.9 ± 0.34 | 2.45 ± 0.52 | – |
| Cc1cc2ncc(C(=O)O)c(C)n2n1 [RK208] | 0.56 ± 0.08 | 1.61 ± 0.19 | 2.28 ± 0.3 |
| Cn1nc(C(=O)O)cc1-c1ccccc1 [RK246] | 8.48 ± 2.06 | 5.22 ± 1.16 | – |
| CN1CCN(C)c2cc(CN)ccc21 [RK395] | 0.51 ± 0.37 | 1.86 ± 1.15 | 5.49 ± 3.22 |
